Reference: patent US12043644B2, “Benzimidazole derivatives, preparation method thereof and use thereof as anti-cancer agent or anti-virus agent comprising the same” (BIOMETRIX TECHNOLOGY INC, priority 2020, dated 2024)

Experiments:
[1] = tested on: normal lung cell line MRC-5 and the normal colon CCD-18Co cell line; assay: Toxicity test in normal cell line (WST-8 cell viability); type: cell-based; conditions: grade evaluated in comparison with doxorubicin, MRC-5 and CCD-18Co, 0-100 μm, 7 concentrations, 72 hours
Description: The normal lung cell line MRC-5 and the normal colon CCD-18Co cell line were furnished from Korea Cell Line Bank (KCLB, Seoul, Korea) and cultured in culture medium. In a humidified cell culture incubator containing 5% CO2 at 37° C. using DMEM, 10% culture flask, fetal bovine serum (FBS), 0.1 mM MEM non-essential amino acids (NEAA), 2 mM L-glutamine, and 1% penicillin-streptomycin were treated with trypsin every 2-3 days according to the guidelines provided by KCLB, and the cells were sub-cultured. The culture was cultured until it reached 80-90% confluence, and the cells were continuously transferred to a culture flask for a cancer cell line growth inhibition experiment. Normal cell lines (MRC-5 and CCD-18Co) were seeded in about 10000 cells per well in a 96-well plate. After 24 hours, the three compounds shown in Table 1 below were added to each well at 7 concentrations, and incubated for 72 hours. The cell viability and analysis in the normal cell line were performed in the same manner as in Test Example 1, and the results of the toxicity test (72 hours) in the normal cell line are shown in FIG. 4.

[2] = tested on: human lung cancer cell line A549, cervical cancer cell line Hela, and colorectal cancer cell line HT-29; assay: Cancer cell line growth inhibition test (WST-8 cell viability); type: cell-based; conditions: grade evaluated in comparison with doxorubicin, 0-100 μm, 7 concentrations, incubated for 72 hours
Description: Human lung cancer cell line A549, cervical cancer cell line Hela, and colorectal cancer cell line HT-29 were furnished from Korea Cell Line Bank (KCLB, Seoul, Korea) and cultured in culture medium. In a humidified cell culture incubator containing 5% CO2 at 37° C. using DMEM, 10% culture flask, fetal bovine serum (FBS), 0.1 mM MEM non-essential amino acids (NEAA), 2 mM L-glutamine, and 1% penicillin-streptomycin were treated with trypsin every 2-3 days according to the guidelines provided by KCLB, and the cells were sub-cultured. The culture was cultured until it reached 80-90% confluence, and the cells were continuously transferred to a culture flask for a cancer cell line growth inhibition experiment. Cancer cell lines to be tested (human lung cancer cell line A549, cervical cancer cell line Hela, and colorectal cancer cell line HT-29) were seeded in about 10000 cells per well in a 96-well plate. […] After incubation, the medium was discarded and the cell viability was measured in each well using a WST-8 cell viability assay kit (Quanti-Max™, BIOMAX) according to the procedure instructed by the manufacturer. The analysis utilized the principle that the dehydrogenase in living cells decomposes tetrazolium salts to produce formazan, through which living cells were quantitatively evaluated. […]

Cl.Nc1nc2ccc(Sc3ccccc3)cc2[nH]1 [Aminophenbendazole, reference compound]
Normal cell line growth inhibition test [1]: A A A
Normal cell line growth inhibition test ([1]; listed as aminophenbendazole): AAA

OC[C@H]1OC(Nc2nc3ccc(Sc4ccccc4)cc3[nH]2)[C@H](O)[C@@H](O)[C@@H]1O (stereo partly shown) [Phenhendazole-glucose conjugate, 6-(phenylthio)-1H-benzoimidazol-2-aminoglucose]
Cancer cell line growth inhibition test [2]: A A A
Cancer cell line growth inhibition test ([2]; listed as phenbendazole-glucose conjugate): AAA
